No end group written: not given here.
How the values were obtained:
FPRL1 = target: T1, FPRL1 (Homo sapiens, UniProt P25090); experiment: ERK phosphorylation in FPRL1/RBL cells (immunoblot); assay type: cell-based; conditions: FPRL1/RBL cells
T1 construct: expressed in transfected cells; host or cells: rat basophil leukemia RBL-2H3 cells, kept under G418
T1 sequence (P25090 1-351): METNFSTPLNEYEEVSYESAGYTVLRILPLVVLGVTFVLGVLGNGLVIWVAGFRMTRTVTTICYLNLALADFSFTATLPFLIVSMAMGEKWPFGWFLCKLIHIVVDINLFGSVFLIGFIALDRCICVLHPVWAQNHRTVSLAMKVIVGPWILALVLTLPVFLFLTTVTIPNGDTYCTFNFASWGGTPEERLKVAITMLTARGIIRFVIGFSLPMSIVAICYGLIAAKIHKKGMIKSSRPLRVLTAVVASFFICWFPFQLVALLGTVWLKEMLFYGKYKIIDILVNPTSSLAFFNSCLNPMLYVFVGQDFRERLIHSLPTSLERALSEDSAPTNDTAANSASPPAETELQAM
Description: Vector/RBL cells, FPR/RBL cells, FPRL1/RBL cells, and HUVECs were cultured to confluence, and serum-starved. The stimulated cells (1×10^5 cells) were washed with PBS twice, dissolved in 1 ml of sample buffer (50 mM Tris-HCl, 100 mM NaCl, 0.1% SDS, 1% Nonidet P-40, 50 mM NaF, 1 mM Na3VO4, 1 μg/ml aprotinin, 1 μg/ml pepstatin, and 1 μg/ml leupeptin), heated at 95° C. for 30 seconds, separated with SDS-PAGE, and then, transferred to a nitrocellulose film. Immunoblot was conducted using anti-phospho-ERK (extracellular signal regulated kinase)1/2 (Thr^202/Tyr^204)(Cell Signaling Technology, Beverly, Mass., USA), anti-ERK1/2 (Cell Signaling Technology, Beverly, Mass., USA), anti-CTGF (Abcam, Cambridge, Mass., USA), anti-Actin (Sigma, St. Louis, Mo., USA), or anti-Flag (Sigma, St. Louis, Mo., USA) antibody, and then, the film was visualized with a chemiluminescence substrate (Amersham Pharmacia).
To confirm this, the inventors obtained conditioned medium (CM) in HUVEC treated with VEGF-A, and FPRL1-overexpressing cells FPRL1/RBL were treated therewith in the concentration of 10 ng/ml or 50 ng/ml for 8 hours. At this time, as positive control, FPRL1 agonistic peptide WKYMVm (Trp-Lys-Tyr-Met-Val-D-Met, SEQ ID NO. 1) was treated with 10 nM.
After the treatment, immunoblot was conducted on cell lysate that was transferred to a nitrocellulose film with anti-phospho ERK (extracellular signal regulated kinase)1/2 and anti-ERK1/2 antibody (Cell Signaling Technology, Beverly, Mass., USA), and then, the film was visualized with a chemiluminescence substrate (Amersham Pharmacia), and the results are shown in FIG. 1.
Meanwhile, the above described vector/RBL, FPR/RBL, or FPRL1/RBL cells were respectively treated with the above conditioned medium or VEGF-A at the concentration of 10 ng/ml for 8 hours, and positive control was treated with 10 nM of agonistic peptide WKYMVm (SEQ ID NO. 1).
As described in the <Experiment method 5>, FPRL1/RBL cells were treated with 40 ug of the HPLC fraction of the conditioned medium for 5 minutes, and the result confirming whether ERK phosphorylation occurred as described in the <Experiment result 1> was shown in FIG. 3.
To confirm whether the purified proteins induce ERK phosphorylation in FPRL1/RBL cells, immunoblot was conducted as described in the <Experiment result 1>, and the results are shown in FIG. 9.
ERK phosphorylation induction of CTGF linker polypeptide was compared to recombinant human CTGF (rhCTGF). Specifically, FPRL1/RBL cells were treated with CTGF linker polypeptide and rhCTGF for 5 minutes at various concentrations, ERK phosphorylation was measured, and the results are shown in FIG. 11. […]

HUVECs [1] = experiment: Intracellular Ca2+ concentration in HUVECs; assay type: cell-based, human
Description: FPRL1/RBL, vector/RBL or FPR/RBL cells were cultured in a fluo-3-AM working solution containing 0.03% (w/v) plutonic F-127 (Molecular Probes) at 37° C. for 1 hour so that the final concentration of fluo-3-AM became 20 uM/L. After the culturing, fluo-3-AM fluorescence occurred at 488 nm with high-power Ar^+ laser in the cells, and the emission band was measured at 530 nm with photomultiplier. Fluorescence signal was detected using confocal laser scanning system (LSM 510 Meta; Carl Zeiss, Jena, Germany) equipped with Nikon E-600 Eclipse microscope. Fluorescence intensities before adding CTGF (F0) and after adding CTGF (F) were measured. Change in the intracelullar Ca^2+ concentration [Ca^2+]i was indicated by F/F0 ratio. From each cell, 50 to 120 images were scanned.
And, HUVECs were treated with the CTGF linker polypeptide or rhCTGF at various concentrations for 1 hour, it was confirmed whether intracellular Ca^2+ concentration increases by the above method, and the results are shown in FIG. 15.

HUVECs [2] = experiment: HUVEC tube formation on Matrigel; assay type: cell-based, human
Description: Meanwhile, to analyze tube formation, HUVECs were inoculated on the previously polymerized Matrigel (BD Biosciences) layer together with a certain amount of linker polypeptide, rhCTGF or VEGF-A165. After culturing for 18 hours, the shape of the cells was observed by phase-contrast microscopy, and photographed with 40× magnification. By measuring the length of tubes 5 times in LPF (low-power fields) randomly selected from each well using image-Pro Plus v4.5 (Media Cybernetics, Silver Spring, Md.), the degree of tube formation was quantified.
First, 20 ng/ml of VEGF-A was administered to HUVECs, the degree of cell proliferation, cell migration, or tube formation was confirmed by the <Experiment method 9>, and the results are shown in FIGS. 22 to 24. At this time, FPRL1 antagonist WRW4 was additionally added.

Row | Substance | effect of antagonist on ERK phosphorylation induced by CTGF linker polypeptide or rhCTGF (FPRL1; 10 nM CTGF linker polypeptide or rhCTGF, WRW4 10 uM) | effect of antagonist on Ca2+ increase by CTGF linker polypeptide in HUVECs (HUVECs [1]; WRW4 10 uM) | effect of antagonist on HUVEC tube formation induced by VEGF-A (HUVECs [2]; VEGF-A 20 ng/ml, WRW4 10 uM) | effect of antagonist on HUVEC tube formation induced by CTGF linker polypeptide (HUVECs [2]; WRW4 10 uM) | ERK phosphorylation compared to rhCTGF (FPRL1; 10 nM) | ERK phosphorylation compared to rhCTGF (FPRL1; various concentrations, 5 minutes) | intracellular Ca2+ concentration in HUVECs (HUVECs [1]; various concentrations, 1 hour) | tube formation of HUVECs (HUVECs [2]; 18 hours, compared to recombinant CTGF)
1 | WRWWWW (FPRL1 antagonist) [WRW4] | ERK phosphorylation is inhibited | that's not the case when the cells are treated with FPRL1 antagonist WRW4 | the tube formation is not induced | the tube formation is not be induced | – | – | – | –
2 | EWVCDEPKDQTVVGPALAAYRLEDTFGPDPTMIRANCLV (EWVCDEPKDQTVVGPALAAYRLEDTFGPDPTMIRANCLV-NH2; cysteine pairing not given here) [CTGF linker polypeptide] | – | – | – | – | induces ERK phosphorylation to a similar level to rhCTGF | induces ERK phosphorylation to a similar level to rhCTGF | increases intracellular Ca^2+ concentration in a concentration-dependent manner | induces tube formation of HUVECs more effectively than recombinant CTGF

From patent US8859496B2, “Pharmaceutical composition using connective-tissue growth factor” (Postech Academy-Industry Foundation, priority 2010, dated 2014)
